Consider 1 compound from US20100047360A1, “Use Of Polyamines In The Treatment Of Psoriasis” (Bioforskining Pharma AS, priority 2006, published 2010).

Molecules are shown by their SMILES.

In this experiment the test system is psoriasis. Kind of experiment: Clinical study, efficacy of topical cream in psoriasis patients. The class given is in vivo, human. The note with it: patient; previously used antipsoriasis drugs. From the text: The patient started to use a cream according to Example 1 two to four times daily. […] The patient stopped using the spermine cream after about six months.
A patient with psoriasis (knees, elbows and scalp) started to use a cream according to Example 1 daily.
A patient with psoriasis (scalp, auditory canal, hands, elbows, partly in the face and body (psoriasis grade medium on 15% of the body)).

On to `CN(Cc1cnc2nc(N)nc(N)c2n1)c1ccc(C(=O)N[C@@H](CCC(=O)O)C(=O)O)cc1` [methotrexate], for which the “effectiveness of previous treatment” value was “only effective treatment”.
